Test results taken from US20260285801A1, “LIPID NANOPARTICLE FOR TARGETED DELIVERY OF THERAPEUTIC PAYLOADS” (Trustees of Tufts College, priority 2023, published 2026).

How the values were obtained:
[1] = LNP size and polydispersity index by dynamic light scattering (Zetasizer Nano ZS); format: physicochemical; conditions: LNP with mRNA payload formulated with the lipid; active lipid/Cholesterol/DOPC/DMG-PEG 16.8/4.0/2.0/1.0; Lipids:mRNA 25:1; PBS pH 7.4, 25° C.
Procedure: (§1) RNA working solutions (0.134 mg/ml) were prepared in 25 mM sodium acetate buffer using DNase/RNase-free distilled water. Lipid stock solutions (10 mg/mL) were freshly prepared with active lipids or helper lipids (e.g., cholesterol, DOPC or DSPC, or ALC-0159) in ethanol. Reagents were mixed by vortexing and sonicating until the lipids were completely dissolved. A lipid mixture was first prepared by combining the active lipids (e.g., ionizable lipids of the present disclosure) and helper lipids into one vial and mixing thoroughly. Lipid nanoparticles were then formed by mixing the RNA working solution (0.134 mg/ml) and the lipid mixture at 3:1 volume ratio, either manually (for smaller scale) or by Precision Igniter microfluidic device. The formulation solution was transferred into a 300 kDa MWCO Float-A-Lyzer G2 Dialysis Device and dialyzed against at least 1000-folds volume of 50 mM Tris buffer overnight at 4° C. The LNP solution was sterilized with a 0.22 μm filter.
(§2) For LNP characterization, size and polydispersity index (PDI) were determined by dynamic light scattering using a Zetasizer Nano ZS. 10 μL of LNP suspension was transferred to a low-volume cuvette containing 900 μL of Ca^2+ and Mg^2+ free PBS at pH 7.4. Refractive index was set to […] and temperature was set to 25° C. Encapsulation efficiency (EE %) was measured using a fluorescence plate-based assay employing the Ribogreen reagent (Invitrogen) as per PNI Ribogreen assay protocol 16. This assay measures the quantity of mRNA in samples with intact LNPs to determine the quantity of unencapsulated RNA as well as in LNP samples disrupted by triton X-100 to measure the total RNA. EE % is calculated as the difference between the total RNA and the unencapsulated RNA divided by the total RNA.

[2] = Encapsulation efficiency and mRNA quantity by Ribogreen fluorescence plate assay; format: physicochemical; conditions: LNP with mRNA payload formulated with the lipid, 16.8/4.0/2.0/1.0, Lipids:mRNA 25:1; for EE %: (total RNA - unencapsulated RNA)/total RNA
Procedure: as §1, §2

Row | SMILES | PDI [1] | Size (nm) [1] [nm] | [mRNA] Ug/ml [2] [Ug/ml] | EE % [2] [%]
1 | CCCCCCC(CCCC)COC(=O)OCCOC(=O)CCN(CCCN(C)CCCN(CCC(=O)OCCOC(=O)OCC(CCCC)CCCCCC)CCC(=O)OCCOC(=O)OCC(CCCC)CCCCCC)CCC(=O)OCCOC(=O)OCC(CCCC)CCCCCC (stereo not drawn) [Lipid L0088] | 0.087 | 153.9 | 69.7 | 85.2
2 | CCCCCCC(CCCC)CNC(=O)SCCOC(=O)CCN(CCCN(C)CCCN(CCC(=O)OCCSC(=O)NCC(CCCC)CCCCCC)CCC(=O)OCCSC(=O)NCC(CCCC)CCCCCC)CCC(=O)OCCSC(=O)NCC(CCCC)CCCCCC (stereo not drawn) [Lipid L0550] | 0.14 | 121 | 61.1 | 84.3
3 | CCC1CC1CCCCSSCCOC(=O)CCN(CCCN(C)CCCN(CCC(=O)OCCSSCCCCC1CC1CC)CCC(=O)OCCSSCCCCC1CC1CC)CCC(=O)OCCSSCCCCC1CC1CC (stereo not drawn) [Lipid L0586] | 0.079 | 151.8 | 78 | 21.2
4 | CCC(C)CCCCCOC(=O)CCN(CCCN(C)CCCN(CCC(=O)OCCCCCC(C)CC)CCC(=O)OCCCCCC(C)CC)CCC(=O)OCCCCCC(C)CC (stereo not drawn) [Lipid L0630] | 0.102 | 121.9 | 74.99 | 60.74
5 | CCC(C)CCCCCOC(=O)CCN(CCC(=O)OCCCCCC(C)CC)CCN(C)CCN(CCC(=O)OCCCCCC(C)CC)CCC(=O)OCCCCCC(C)CC (stereo not drawn) [Lipid L0631] | 0.105 | 122.2 | 88.88 | 45.59
6 | CCCCCCCCC(CCC)OC(=O)OCCOC(=O)CCN(CCCN(C)CCCN(CCC(=O)OCCOC(=O)OC(CCC)CCCCCCCC)CCC(=O)OCCOC(=O)OC(CCC)CCCCCCCC)CCC(=O)OCCOC(=O)OC(CCC)CCCCCCCC (stereo not drawn) [Lipid L0637] | 0.34 | 186.1 | 66.8 | 94
7 | CCCCCCCCC(CCC)OC(=O)OCCOC(=O)CCN(CCC(=O)OCCOC(=O)OC(CCC)CCCCCCCC)CCN(C)CCN(CCC(=O)OCCOC(=O)OC(CCC)CCCCCCCC)CCC(=O)OCCOC(=O)OC(CCC)CCCCCCCC (stereo not drawn) [Lipid L0638] | 0.22 | 121.5 | 65.1 | 95.7
8 | CC(C)CCCCCCSSCCOC(=O)CCN(CCCN(C)CCCN(CCC(=O)OCCSSCCCCCCC(C)C)CCC(=O)OCCSSCCCCCCC(C)C)CCC(=O)OCCSSCCCCCCC(C)C [Lipid L0642] | 0.124 | 186.4 | 99.9 | 84.5
9 | CC(C)CCCCCCSSCCOC(=O)CCN(CCCn1ccnc1)CCC(=O)OCCSSCCCCCCC(C)C [Lipid L0645] | 0.106 | 161 | 90 | 74.2
10 | CCCCCCCC(CCCCCC)OC(=O)OCCOC(=O)CCN(CCCN(C)CCCN(CCC(=O)OCCOC(=O)OC(CCCCCC)CCCCCCC)CCC(=O)OCCOC(=O)OC(CCCCCC)CCCCCCC)CCC(=O)OCCOC(=O)OC(CCCCCC)CCCCCCC (stereo not drawn) [Lipid L0654] | 0.1 | 119.4 | 65.6 | 90.6
11 | CCCCCCCCCC(CC)OC(=O)OCCOC(=O)CCN(CCCN(C)CCCN(CCC(=O)OCCOC(=O)OC(CC)CCCCCCCCC)CCC(=O)OCCOC(=O)OC(CC)CCCCCCCCC)CCC(=O)OCCOC(=O)OC(CC)CCCCCCCCC (stereo not drawn) [Lipid L0659] | 0.1 | 104.3 | 69.6 | 96.2
12 | CCCCCCCCCC(CC)OC(=O)OCCOC(=O)CCN(CCCN(C)CCCN(CCC(=O)OCCOC(=O)OC(CC)CCCCCCCCC)CCC(=O)OCCOC(=O)OC(CC)CCCCCCCCC)CCC(=O)OCCOC(=O)OC(CC)CCCCCCCCC (stereo not drawn) [Lipid L0660] | 0.11 | 122.2 | 71 | 97
13 | CCCCCCC(CCCC)COC(=O)OCCOC(=O)CCN(CCCN(CCO)CCCN(CCC(=O)OCCOC(=O)OCC(CCCC)CCCCCC)CCC(=O)OCCOC(=O)OCC(CCCC)CCCCCC)CCC(=O)OCCOC(=O)OCC(CCCC)CCCCCC (stereo not drawn) [Lipid L0665] | 0.16 | 107.6 | 65.8 | 97.2
14 | CCCCCCC(CCCC)COC(=O)OCCOC(=O)CCN(CCCN(CCCO)CCCN(CCC(=O)OCCOC(=O)OCC(CCCC)CCCCCC)CCC(=O)OCCOC(=O)OCC(CCCC)CCCCCC)CCC(=O)OCCOC(=O)OCC(CCCC)CCCCCC (stereo not drawn) [Lipid L0666] | 0.26 | 246.5 | 71.9 | 96.1
15 | CC/C=C\CCCC[Se]CCOC(=O)CCN(CCCN(C)CCCN(CCC(=O)OCC[Se]CCCC/C=C\CC)CCC(=O)OCC[Se]CCCC/C=C\CC)CCC(=O)OCC[Se]CCCC/C=C\CC [Lipid L0825] | 0.099 | 118.7 | 91.2 | 62

Second part, the compound after the results:

Row | PDI [1] | Size (nm) [1] [nm] | [mRNA] Ug/ml [2] [Ug/ml] | EE % [2] [%] | SMILES
16 | 0.19 | 101.7 | 77.3 | 97 | CCCCCCC(CCCC)COC(=O)OCCOC(=O)CCN(CCCN(CCCCO)CCCN(CCC(=O)OCCOC(=O)OCC(CCCC)CCCCCC)CCC(=O)OCCOC(=O)OCC(CCCC)CCCCCC)CCC(=O)OCCOC(=O)OCC(CCCC)CCCCCC (stereo not drawn) [Lipid L0667]
17 | 0.11 | 134.7 | 67.1 | 97 | CCCCCCC(CCCC)COC(=O)OCCOC(=O)CCN(CCCN(CCCNC(=O)OC(C)(C)C)CCCN(CCC(=O)OCCOC(=O)OCC(CCCC)CCCCCC)CCC(=O)OCCOC(=O)OCC(CCCC)CCCCCC)CCC(=O)OCCOC(=O)OCC(CCCC)CCCCCC (stereo not drawn) [Lipid L0668]
18 | 0.22 | 124.4 | 71.22 | 98.92 | CCCCCCC(CCCC)COC(=O)OCCOC(=O)CCN(CCCN(CCCN(CCC(=O)OCCOC(=O)OCC(CCCC)CCCCCC)CCC(=O)OCCOC(=O)OCC(CCCC)CCCCCC)CCCN1CCN(C)CC1)CCC(=O)OCCOC(=O)OCC(CCCC)CCCCCC (stereo not drawn) [Lipid L0674]
19 | 0.118 | 97 | 74 | 95.5 | CCCCCCC(CCCC)COC(=O)NCCNC(=O)CCN(CCCN(C)CCCN(CCC(=O)OCCNC(=O)OCC(CCCC)CCCCCC)CCC(=O)OCCNC(=O)OCC(CCCC)CCCCCC)CCC(=O)NCCNC(=O)OCC(CCCC)CCCCCC (stereo not drawn) [Lipid L0744]
20 | 0.089 | 135.3 | 95.3 | 98.7 | CCCCCCC(CCCC)COC(=O)OCCOC(=O)CCN(CCCN(CCCNC(=S)NC)CCCN(CCC(=O)OCCOC(=O)OCC(CCCC)CCCCCC)CCC(=O)OCCOC(=O)OCC(CCCC)CCCCCC)CCC(=O)OCCOC(=O)OCC(CCCC)CCCCCC (stereo not drawn) [Lipid L0773]
21 | 0.863 | 5911 |  |  | CCCCCCC(CCCC)CNC(=O)NCCNC(=O)CCN(CCCN(C)CCCN(CCC(=O)NCCNC(=O)NCC(CCCC)CCCCCC)CCC(=O)NCCNC(=O)NCC(CCCC)CCCCCC)CCC(=O)NCCNC(=O)NCC(CCCC)CCCCCC (stereo not drawn) [Lipid L0775]
22 | 0.107 | 183 | 96.7 | 84 | CC(C)CCCCCCCCSSCCOC(=O)CCN(CCCN(C)CCCN(CCC(=O)OCCSSCCCCCCCCC(C)C)CCC(=O)OCCSSCCCCCCCCC(C)C)CCC(=O)OCCSSCCCCCCCCC(C)C [Lipid L0813]
23 | 0.093 | 178.8 | 90.2 | 70 | CC(C)CCCCCCCCSSCCOC(=O)CCN(CCCN(C)CCCN(CCC(=O)OCCSSCCCCCCCCC(C)C)CCC(=O)OCCSSCCCCCCCCC(C)C)CCC(=O)OCCSSCCCCCCCCC(C)C [Lipid L0814]
24 | 0.12 | 95.98 | 93.4 | 68 | CCCCC/C=C\CCCOC(=O)CCN(CCCN(C)CCCN(CCC(=O)OCCC/C=C\CCCCC)CCC(=O)OCCC/C=C\CCCCC)CCC(=O)OCCC/C=C\CCCCC [Lipid L0824]
25 | 0.082 | 141 | 95.2 | 39 | CCCC/C=C\CCOC(=O)CCN(CCCN(C)CCCN(CCC(=O)OCC/C=C\CCCC)CCC(=O)OCC/C=C\CCCC)CCC(=O)OCC/C=C\CCCC [Lipid L0826]
26 | 0.13 | 98.3 | 78 | 92 | CC/C=C\CCCCOC(=O)CCN(CCCN(C)CCCN(CCC(=O)OCCCC/C=C\CC)CCC(=O)OCCOC(=O)OCC(CCCC)CCCCCC)CCC(=O)OCCCC/C=C\CC (stereo not drawn) [Lipid L0829]
